# Data: ChEMBL document CHEMBL4725381, “Synthesis and activity of isoleucine sulfonamide derivatives as novel botulinum neurotoxin serotype A light chain inhibitors” (Bioorg Med Chem, 2020)
# Active and inactive are the calls of the source. The rule behind the calls is not given here.
# Tests used:
# [1] = target: Botulinum neurotoxin type A (Clostridium botulinum) (UniProt P0DPI0); experiment: Inhibition of Clostridium botulinum BoNT/A light chain at 30 uM using SNAPtide as substrate preincubated with enzyme for 2 mins followed by substrate addition and measured for 0-5 mins by FRET assay relative to control
# Sequence of Botulinum neurotoxin type A (Clostridium botulinum) (P0DPI0 2-448 limits assumed): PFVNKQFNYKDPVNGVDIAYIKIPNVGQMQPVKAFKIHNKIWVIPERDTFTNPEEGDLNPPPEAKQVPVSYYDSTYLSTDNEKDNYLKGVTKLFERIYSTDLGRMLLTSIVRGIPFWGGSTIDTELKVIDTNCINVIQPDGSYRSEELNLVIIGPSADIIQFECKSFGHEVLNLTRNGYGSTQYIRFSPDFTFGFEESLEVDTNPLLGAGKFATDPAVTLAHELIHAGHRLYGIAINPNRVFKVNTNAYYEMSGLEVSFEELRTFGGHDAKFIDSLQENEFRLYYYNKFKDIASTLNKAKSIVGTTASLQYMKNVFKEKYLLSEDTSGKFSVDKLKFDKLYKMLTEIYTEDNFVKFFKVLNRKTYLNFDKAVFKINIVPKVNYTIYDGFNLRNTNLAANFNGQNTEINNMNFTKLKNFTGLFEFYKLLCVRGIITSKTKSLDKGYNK
# [2] = target: Botulinum neurotoxin type A (Clostridium botulinum, UniProt P0DPI0); experiment: Inhibition of Clostridium botulinum BoNT/A light chain using SNAPtide as substrate preincubated with enzyme for 2 mins followed by substrate addition and measured for 0-5 mins by FRET assay
# Sequence of Botulinum neurotoxin type A (P0DPI0 2-448 limits assumed): as above
SMILES,inhibition [1],IC50 [2] [µM]
CC[C@H](C)[C@H](NC(=O)c1cccc(-c2cc(Cl)ccc2Cl)c1)C(=O)NO,68%,–
CC[C@H](C)[C@H](NS(=O)(=O)c1cccc(-c2ccco2)c1)C(=O)NO,40%,–
CC[C@H](C)[C@H](NS(=O)(=O)c1cccc(-c2ccc([N+](=O)[O-])cc2)c1)C(=O)NO,41%,–
CC[C@H](C)[C@H](NS(=O)(=O)c1cccc(-c2c(Cl)cccc2Cl)c1)C(=O)NO,66%,–
CC[C@H](C)[C@H](NS(=O)(=O)c1cccc(-c2cc(Cl)ccc2Cl)c1)C(=O)NO,29%,–
CC[C@H](C)[C@H](NC(=O)c1cccc(-c2cccc(Cl)c2)c1)C(=O)NO,64%,–
CC[C@H](C)[C@H](NS(=O)(=O)c1cccc(-c2cc3ccccc3o2)c1)C(=O)NO,61%,–
CC[C@H](C)[C@H](NS(=O)(=O)c1cccc(-c2cccc([N+](=O)[O-])c2)c1)C(=O)NO,34%,–
CC[C@@H](C)[C@@H](NS(=O)(=O)c1cccc(-c2cc3ccccc3o2)c1)C(=O)NO,94%,14
CC[C@H](C)[C@H](NC(=O)c1cccc(-c2cc3ccccc3o2)c1)C(=O)NO,80%,–
CC[C@H](C)[C@H](NC(=O)c1cccc(-c2ccccc2Cl)c1)C(=O)NO,50%,–
CC[C@H](C)[C@H](NS(=O)(=O)c1cccc(-c2ccccc2Cl)c1)C(=O)NO,50%,–
CC[C@H](C)[C@H](NS(=O)(=O)c1cccc(-c2ccc(Cl)c(Cl)c2)c1)C(=O)NO,26%,–
CC[C@H](C)[C@H](NS(=O)(=O)c1cccc(-c2cccc(Cl)c2)c1)C(=O)NO,44%,–
CC[C@H](C)[C@H](NS(=O)(=O)c1cccc(-c2ccc(Cl)cc2Cl)c1)C(=O)NO,48%,–
CC[C@@H](C)[C@@H](NS(=O)(=O)c1cccc(-c2ccccc2Cl)c1)C(=O)NO,–,0.587
O=C(NO)C1(NS(=O)(=O)c2cccc(-c3cc4ccccc4o3)c2)CC1,inactive,–
CC[C@H](C)[C@H](NS(=O)(=O)c1cccc(-c2ccoc2)c1)C(=O)NO,14%,–
CC[C@H](C)[C@H](NC(=O)c1cccc(-c2ccco2)c1)C(=O)NO,58%,–
CC[C@@H](C)[C@@H](NC(=O)c1cccc(-c2cc3ccccc3o2)c1)C(=O)NO,16%,–
CC(C)C[C@@H](NC(=O)c1cccc(-c2cc3ccccc3o2)c1)C(=O)NO,58%,–
CCCC[C@H](NS(=O)(=O)c1cccc(-c2cc3ccccc3o2)c1)C(=O)NO,44%,–
CC(C)C[C@@H](NS(=O)(=O)c1cccc(-c2cc3ccccc3o2)c1)C(=O)NO,86%,–
